# Like-named read-outs stand apart in the source and are kept apart here.
# Columns and labels:
# human α2C-adrenoceptor = target: T1, human α2C-adrenoceptor (Homo sapiens, UniProt P18825); assay: α2C-Adrenoceptor binding experiment ([3H] MK912 displacement, crude membrane sample)
# T1 construct: expressed in transfected cells; host or cells: COS-1 cells
# T1 sequence (P18825 1-462): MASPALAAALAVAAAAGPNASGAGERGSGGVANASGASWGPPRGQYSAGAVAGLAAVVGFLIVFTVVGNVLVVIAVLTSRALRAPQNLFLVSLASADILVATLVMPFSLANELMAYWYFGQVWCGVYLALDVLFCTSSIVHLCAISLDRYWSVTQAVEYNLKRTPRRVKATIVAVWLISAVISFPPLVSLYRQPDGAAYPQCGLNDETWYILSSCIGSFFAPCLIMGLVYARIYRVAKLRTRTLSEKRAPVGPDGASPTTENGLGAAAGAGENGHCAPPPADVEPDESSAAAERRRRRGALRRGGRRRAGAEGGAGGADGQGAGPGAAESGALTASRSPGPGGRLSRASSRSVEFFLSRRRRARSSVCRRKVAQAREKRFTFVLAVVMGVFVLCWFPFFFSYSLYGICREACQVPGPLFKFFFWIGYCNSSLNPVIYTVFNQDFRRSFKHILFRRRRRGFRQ
# Method: The subject experiment was performed by a method improved from the method described in Uhlen et al., Journal of Pharmacology and Experimental Therapeutics (1994), 1558-1565. Briefly, human α2C-adrenoceptor expressing COS-1 cells were homogenized with 50 mM Tris-HCl buffer (pH 7.4) containing 12.5 mM magnesium hydrochloride and 1 mM EDTA. The resultant homogenate was centrifuged at 48,000×g for 20 minutes at 4° C. twice. The precipitate was suspended in 50 mM Tris-HCl buffer (pH 7.4) containing 12.5 mM magnesium hydrochloride and 1 mM EDTA to give a protein concentration of 150 μg/ml. This suspension was used in binding experiments as a crude membrane sample. The crude membrane sample (0.5 ml, 75 μg protein) was reacted with [^3H] MK912 (final concentration 0.08 nM) at 25° C. for 60 minutes. After completion of the reaction, the reaction mixture was vacuum filtered on GF/B glass fiber filter pre-immersed in 0.3% polyethyleneimine for 2 hours, using a cell harvester for binding experiments. The filter was placed in a glass vial containing 8 ml of Aquasol 2, and the radioactivity thereof was measured with a liquid scintillation counter. The amount of binding in the presence of 10 μM rauwolcine was taken as non-specific binding. The value obtained by subtracting non-specific binding from the total binding in the absence of 10 μM rauwolcine was taken as specific binding. Each of the test compounds was dissolved in 100% dimethyl sulfoxide solution and added to the membrane sample simultaneously with [^3H] MK912. IC50 values were calculated from inhibition curves at concentrations from 0.1 nM to 1 μM.
# human α2A-adrenoceptor = target: T2, human α2A-adrenoceptor (Homo sapiens, UniProt P08913); assay: α2A-Adrenoceptor binding experiment ([3H] MK912 displacement, crude membrane sample); conditions: membranes of human α2A-adrenoceptor expressing COS-7 cells; [3H] MK912 1 nM; 25° C., 60 minutes; read-out: Ability to Inhibit (IC50, nM) α 2A
# T2 construct: expressed in transfected cells; host or cells: COS-7 cells
# T2 sequence (P08913 1-465): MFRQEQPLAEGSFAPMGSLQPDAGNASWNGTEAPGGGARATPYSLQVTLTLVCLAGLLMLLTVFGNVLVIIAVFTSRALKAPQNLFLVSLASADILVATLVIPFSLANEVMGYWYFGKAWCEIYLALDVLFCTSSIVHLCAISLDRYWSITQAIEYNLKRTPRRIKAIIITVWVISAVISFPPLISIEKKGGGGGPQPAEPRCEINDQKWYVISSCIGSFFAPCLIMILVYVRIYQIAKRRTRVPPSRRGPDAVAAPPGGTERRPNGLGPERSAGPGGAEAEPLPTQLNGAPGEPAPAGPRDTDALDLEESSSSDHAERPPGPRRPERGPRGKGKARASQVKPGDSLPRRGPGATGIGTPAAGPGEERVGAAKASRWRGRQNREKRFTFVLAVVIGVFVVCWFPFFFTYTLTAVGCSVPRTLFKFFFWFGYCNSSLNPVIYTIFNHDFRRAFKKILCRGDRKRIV
# Method: The subject experiment was performed by a method improved from the method described in Uhlen et al., Journal of Pharmacology and Experimental Therapeutics (1994), 1558-1565. Briefly, human α2A-adrenoceptor expressing COS-7 cells were homogenized with 50 mM Tris-HCl buffer (pH 7.4) containing 12.5 mM magnesium hydrochloride and 1 mM EDTA. The resultant homogenate was centrifuged at 48,000×g for 20 minutes at 4° C. twice. The precipitate was suspended in 50 mM Tris-HCl buffer (pH 7.4) containing 12.5 mM magnesium hydrochloride and 1 mM EDTA to give a protein concentration of 200 μg/ml. This suspension was used in binding experiments as a crude membrane sample. The crude membrane sample (0.1 ml, 20 μg protein, reaction volume 0.2 ml) was reacted with [^3H] MK912 (final concentration 1 nM) at 25° C. for 60 minutes. After completion of the reaction, the reaction mixture was vacuum filtered on GF/C glass fiber plate pre-immersed in 0.3% polyethyleneimine for 2 hours, using a Filtermate Harvester. Microscinti-0 (40 μl) was added to the plate, and the radioactivity was measured with Top Count (PerkinElmer). The amount of binding in the presence of 10 μM rauwolcine was taken as non-specific binding. The value obtained by subtracting non-specific binding from the total binding in the absence of 10 μM rauwolcine was taken as specific binding. Each of the test compounds was dissolved in 100% DMSO solution and added to the membrane sample simultaneously with [^3H] MK912. IC50 values were calculated from inhibition curves at concentrations from 1 nM to 10 μM.
# [1] = membranes of human α2C-adrenoceptor expressing COS-1 cells, [3H] MK912 0.08 nM, 25° C., 60 minutes, read-out: Ability to Inhibit (IC50, nM) α 2C
Structure (SMILES),IC50 (human α2C-adrenoceptor; [1]) [nM],IC50 (human α2A-adrenoceptor) [nM],melting point [°C],IC50 (human α2C-adrenoceptor) [nM]
"COC(=O)C(CCCN1CCc2oc3ccccc3c2C1)(c1ccc(F)cc1)c1ccc(F)cc1 [Compound 1, Methyl 5-(3,4-dihydro[1]benzofuro[3,2-c]pyridine-2(1H)-yl)-2,2-bis(4-fluorophenyl)pentanoate]",28,416,,
"O=C(O)C(CCCN1CCc2oc3ccccc3c2C1)(c1ccc(F)cc1)c1ccc(F)cc1 [Compound 2, 5-(3,4-dihydro[1]benzofuro[3,2-c]pyridine-2(1H)-yl)-2,2-bis(4-fluorophenyl)pentanoic acid]",142,935,,
"Cl.NC(=O)C(CCCN1CCc2oc3ccccc3c2C1)(c1ccc(F)cc1)c1ccc(F)cc1 [Compound 3, 5-(3,4-dihydro[1]benzofuro[3,2-c]pyridine-2(1H)-yl)-2,2-bis(4-fluorophenyl)pentanoic acid amide]",5.8,204,174 to 179.5,
"N#CC(CCCN1CCc2[nH]c3ccccc3c2C1)(c1ccccc1)c1ccccc1 [Compound 8, 2,2-diphenyl-5-(1,3,4,5-tetrahydro-2H-pyrido[4,3-b]indole-2-yl)-pentanenitrile]",121,1290,,
"N#CC(CCCN1CCc2oc3ccc(F)cc3c2C1)(c1ccccc1)c1ccccc1 [Compound 10, 5-(8-fluoro-3,4-dihydro-[1]-benzofuro[3,2-C]pyridine-2(1H)-yl)-2,2-diphenyl-pentanenitrile]",,504,,28
"N#CC(CCCN1CCc2oc3ccc(Cl)cc3c2C1)(c1ccccc1)c1ccccc1 [Compound 11, 5-(8-chloro-3,4-dihydro-[1]-benzofuro[3,2-C]pyridine-2(1H)-yl)-2,2-diphenyl-pentanenitrile]",203,1720,,

# Second part, led by results:
IC50 (human α2C-adrenoceptor; [1]) [nM],IC50 (human α2A-adrenoceptor) [nM],melting point [°C],Structure (SMILES),IC50 (human α2C-adrenoceptor) [nM]
9.3,136,113.5 to 120.5,"Cl.N#CC(CCCN1CCc2oc3ccccc3c2C1)(c1ccc(F)cc1)c1ccc(F)cc1 [Compound 4, 5-(3,4-dihydro[1]benzofuro[3,2-c]pyridine-2(1H)-yl)-2,2-bis(4-fluorophenyl)pentanenitrile]",
5.7,139,195 to 199,"Cl.N#CC(CCCN1CCc2oc3ccccc3c2C1)(c1ccccc1)c1ccccc1 [Compound 5, 5-(3,4-dihydro[1]benzofuro[3,2-c]pyridine-2(1H)-yl)-2,2-diphenylpentanenitrile]",
299,1480,,"N#CC(CCCN1CCc2sc3ccccc3c2C1)(c1ccccc1)c1ccccc1 [Compound 7, 5-(3,4-dihydro-[1]-benzothieno[3,2-C]pyridine-2(1H)-yl)-2,2-diphenyl-pentanenitrile]",
280,4830,,"Cn1c2c(c3ccccc31)CN(CCCC(C#N)(c1ccccc1)c1ccccc1)CC2 [Compound 9, 5-(5-methyl-1,3,4,5-tetrahydro-2H-pyrido[4,3-b]indole-2-yl)-2,2-diphenyl-pentanenitrile]",
53,563,,"COc1ccc2oc3c(c2c1)CN(CCCC(C#N)(c1ccccc1)c1ccccc1)CC3 [Compound 13, 5-(8-methoxy-3,4-dihydro-[1]-benzofuro[3,2-C]pyridine-2(1H)-yl)-2,2-diphenyl-pentanenitrile]",
10,243,,"c1ccc(C(CCCN2CCc3oc4ccccc4c3C2)c2ccccc2)cc1 [Compound 15, 2-(4,4-diphenylbutyl)-1,2,3,4-tetrahydro-[1]-benzofuro[3,2-C]pyridine]",
12,102,,"N#CC1(CCCN2CCc3oc4ccccc4c3C2)c2ccccc2Oc2ccccc21 [Compound 16, 9-[3-(3,4-dihydro-[1]-benzofuro[3,2-C]pyridine-2(1H)-yl)-propyl]-9H-xanthene-carbonitrile]",
